Experimental data taken from US20250206729A1, “DUAL RAF AND TUBULIN INHIBITORS AND METHODS OF USE THEREOF” (Deciphera Pharmaceuticals, LLC, priority 2023, published 2025).
Where two headings read alike, the source gives them in different places.

Experiments:
[1] = test system: MiaPaca-2 cells; assay: MiaPaca-2 cell proliferation assay; type: cell-based; settings: Homo sapiens, MIA PaCa-2
[2] = target: T1, C-Raf kinase (SEQ ID NO: 2) (Homo sapiens, UniProt P04049, Y340D/Y341D); assay: Biochemical assay for C-Raf (coupled pyruvate kinase/lactate dehydrogenase)
T1 construct: C-Raf residues 306-end; Y340D, Y341D with N-; GST (N); purchased Sigma
T1 sequence (P04049 307-648 Y340D/Y341D): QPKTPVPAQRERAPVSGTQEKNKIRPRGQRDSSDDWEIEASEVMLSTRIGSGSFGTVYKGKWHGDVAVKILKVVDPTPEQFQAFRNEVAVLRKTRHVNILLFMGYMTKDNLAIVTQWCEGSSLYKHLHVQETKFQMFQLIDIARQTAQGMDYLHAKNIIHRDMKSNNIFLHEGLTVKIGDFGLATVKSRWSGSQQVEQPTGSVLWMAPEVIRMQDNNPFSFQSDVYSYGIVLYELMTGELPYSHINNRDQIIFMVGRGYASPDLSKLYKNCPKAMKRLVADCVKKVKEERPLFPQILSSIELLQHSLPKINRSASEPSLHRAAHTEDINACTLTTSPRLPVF

[3] = test system: HCT-116 cells; assay: HCT-116 cell proliferation assay; type: cell-based; settings: Homo sapiens
[4] = test system: tubulin polymerization in HCT-116 cells; assay: Cellular tubulin polymerization assay (HCT-116 cells); type: cell-based; settings: HCT-116 cells, read-out: Tubulin Cellular
Description: HCT-116 cells (catalog #CCL-247) are obtained from the American Type Culture Collect (ATCC, Manassas, VA). Briefly, cells are grown in McCoy's 5A supplemented with 10% characterized fetal bovine serum (Invitrogen, Carlsbad, CA) and 1% Penicillin/Streptomycin/L-Glutamine at 37° C., 5% CO2, and 95% humidity. Cells are expanded until reaching 70-95% confluency at which point they are sub-cultured or harvested for assay use. 450000 cells are added per well in 1500 μL complete growth medium in a tissue culture treated, 12-well plate. Plates are incubated for 18 to 24 h at 37° C., 5% CO2, and 95% humidity. At the end of the incubation, 2000 μL of base culture media is added to each well, followed by a serial dilution of compound. Plates are incubated for an additional 1 h at 37° C., 5% CO2, and 95% humidity. Lysates are generated by the addition of 100 μL Lysis and Microtubule Stabilization Buffer 1 (LMSO1, Cytoskeleton Inc, Denver, CO) supplemented with GTP (BST06, Cytoskeleton Inc), ATP (BSA04, Cytoskeleton Inc), and Protease Inhibitor Cocktail Stock (PIC02, Cytoskeleton Inc). Cells are scraped off wells using a rubber cell scraper and collected in a clean 96-well plate. Lysates are centrifuged at 1000× g, 37° C. for 10 min and supernatant fraction is placed into an additional 96-well plate. The remaining pellet fraction is reconstituted in 100 μL LMS01 buffer and sonicated for 10 min. Pellet and Supernatant fractions are probed for α-tubulin via western blot analysis on the Jess System or equivalent (Bio-techne, Minneapolis, MN). Data is analyzed using Prism software (Graphpad, San Diego, CA) to calculate IC50 values.

[5] = test system: HPAF-II cells; assay: HPAF-II cell proliferation assay; type: cell-based; settings: Homo sapiens
[6] = target: T2, B-Raf kinase (SEQ ID NO: 1) (Homo sapiens, UniProt P15056); assay: Biochemical assay for B-Raf (coupled pyruvate kinase/lactate dehydrogenase)
T2 construct: GST (N); purchased Sigma
T2 sequence (P15056 416-766): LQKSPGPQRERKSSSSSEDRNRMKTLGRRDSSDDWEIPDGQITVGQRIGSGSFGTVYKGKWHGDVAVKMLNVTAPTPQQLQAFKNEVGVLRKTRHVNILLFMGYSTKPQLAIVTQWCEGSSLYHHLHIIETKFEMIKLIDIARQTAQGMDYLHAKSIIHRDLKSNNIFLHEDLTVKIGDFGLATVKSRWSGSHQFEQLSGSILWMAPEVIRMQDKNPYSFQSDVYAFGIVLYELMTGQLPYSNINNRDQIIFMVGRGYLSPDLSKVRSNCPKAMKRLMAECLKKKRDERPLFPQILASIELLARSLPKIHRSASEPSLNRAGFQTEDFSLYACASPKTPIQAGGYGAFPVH

[7] = test system: Pa16c cells; assay: Pa16c cell proliferation assay; type: cell-based; settings: 67 to 72 h incubation, resazurin; read-out: Pa16c (inhibition of cell proliferation, IC50)
[8] = Table 4, mutant KRAS pancreatic cancer cell line, anti-proliferative, read-out: MiaPaca-2
[9] = Table 4, mutant KRAS colorectal cancer cell line, anti-proliferative, read-out: HCT-116
[10] = Table 4, mutant KRAS pancreatic cancer cell line, anti-proliferative, read-out: HPAF-II
[11] = 67-72 h incubation, resazurin, read-out: MiaPaca-2 (inhibition of cell proliferation, IC50)
[12] = Table 3, mutant KRAS pancreatic cancer cell line, anti-proliferative, read-out: MiaPaca-2
[13] = 1 mM ATP, read-out: CRAF (inhibition of biochemical activity, IC50)
[14] = HCT-116, 67 to 72 h incubation, resazurin, read-out: HCT-116 (inhibition of cell proliferation, IC50)
[15] = Table 3, mutant KRAS colorectal cancer cell line, anti-proliferative, read-out: HCT-116
[16] = HPAF-II, 115 to 120 h incubation, resazurin, read-out: HPAF-II (inhibition of cell proliferation, IC50)
[17] = Table 3, mutant KRAS pancreatic cancer cell line, anti-proliferative, read-out: HPAF-II
[18] = 1 mM ATP, read-out: BRAF (inhibition of biochemical activity, IC50)

Compound | IC50 [1, 8] [nM] | IC50 ([2]; Table 4, read-out: CRAF) [nM] | IC50 [3, 9] [nM] | IC50 ([4]; Table 4) [nM] | IC50 [5, 10] [nM] | IC50 ([6]; Table 4, read-out: BRAF) [nM] | IC50 [1, 11] [nM] | IC50 [1, 12] [nM] | IC50 [2, 13] [nM] | IC50 ([2]; Table 3, read-out: CRAF) [nM] | IC50 [3, 14] [nM] | IC50 [3, 15] [nM] | IC50 ([4]; Table 3) [nM] | IC50 [5, 16] [nM] | IC50 [5, 17] [nM] | IC50 [6, 18] [nM] | IC50 ([6]; Table 3, read-out: BRAF) [nM] | IC50 [7] [nM]
Cc1ccc2c(Nc3cccc(Cl)c3F)nccc2c1NC(=O)c1csc2c(N)ncnc12 [Belvarafenib, reference compound] | 1000 to 10000 | < 100 | 500 to 1000 | 1000 to 10000 | 1000 to 10000 | < 100 | – | – | – | – | – | – | – | – | – | – | – | –
Cc1ccc(NC(=O)c2cc(C(F)(F)F)cnn2)cc1-c1cc(OCCO)nc(N2CCOCC2)c1 [Example 6] | – | – | – | – | – | – | < 100 | < 100 | < 100 | < 100 | < 100 | < 100 | < 100 | < 100 | < 100 | < 100 | < 100 | < 100
Cc1ccc(NC(=O)c2cc(C(C)C)cnn2)cc1-c1cc(N[C@H](C)CO)nc(N2CCOCC2)c1 [Example 14] | – | – | – | – | – | – | 100 to 500 | 100 to 500 | < 100 | < 100 | 100 to 500 | 100 to 500 | < 100 | 100 to 500 | 100 to 500 | < 100 | < 100 | 1000 to 10000
Cc1ccc(NC(=O)c2cc(C(F)(F)F)cnn2)cc1-c1cc(N[C@H](C)CO)nc(N2CCOCC2)c1 [Example 19] | – | – | – | – | – | – | < 100 | < 100 | < 100 | < 100 | < 100 | < 100 | < 100 | < 100 | < 100 | < 100 | < 100 | < 100
Cc1ccc(NC(=O)c2cc(C#N)cnn2)cc1-c1cc(N[C@H](C)CO)nc(N2CCOCC2)c1 [Example 81] | – | – | – | – | – | – | < 100 | – | 100 to 500 | – | < 100 | – | – | < 100 | – | 500 to 1000 | – | < 100
Cc1ccc(NC(=O)c2cc(Br)cnn2)cc1-c1cc(N[C@H](C)CO)nc(N2CCOCC2)c1 [Example 82] | – | – | – | – | – | – | 100 to 500 | – | < 100 | – | 100 to 500 | – | – | 1000 to 10000 | – | 100 to 500 | – | 1000 to 10000
Cc1ccc(NC(=O)c2cc(C3CC3)cnn2)cc1-c1ccnc(N2C[C@@H](C)O[C@@H](C)C2)c1 [Example 85] | – | – | – | – | – | – | 1000 to 10000 | – | 1000 to 10000 | – | 1000 to 10000 | – | – | 1000 to 10000 | – | 1000 to 10000 | – | 1000 to 10000
Cc1ccc(NC(=O)c2cc(C(F)(F)F)cnn2)cc1-c1ccnc(N2C[C@H]3C[C@@H]2CO3)c1 [Example 86] | – | – | – | – | – | – | < 100 | – | 1000 to 10000 | – | < 100 | – | – | < 100 | – | 1000 to 10000 | – | < 100
Cc1ccc(NC(=O)c2cc(C(F)(F)F)cnn2)cc1-c1ccnc(N2C[C@@H]3C[C@H]2CO3)c1 [Example 87] | – | – | – | – | – | – | < 100 | – | 100 to 500 | – | < 100 | – | – | < 100 | – | 100 to 500 | – | < 100
Cc1ccc(NC(=O)c2cc(C3CC3)cnn2)cc1-c1ccnc(N2C[C@H]3C[C@@H]2CO3)c1 [Example 88] | – | – | – | – | – | – | < 100 | – | < 100 | – | < 100 | – | – | < 100 | – | 100 to 500 | – | < 100
Cc1ccc(NC(=O)c2cc(C3CC3)cnn2)cc1-c1ccnc(N2C[C@@H]3C[C@H]2CO3)c1 [Example 89] | – | – | – | – | – | – | < 100 | – | 1000 to 10000 | – | < 100 | – | – | < 100 | – | 100 to 500 | – | < 100
Cc1ccc(NC(=O)c2cc(C(F)(F)F)cnn2)cc1-c1nc(N[C@H](C)CO)cc(N2C[C@H]3C[C@@H]2CO3)n1 [Example 90] | – | – | – | – | – | – | 100 to 500 | – | 1000 to 10000 | – | 100 to 500 | – | – | 500 to 1000 | – | 1000 to 10000 | – | 1000 to 10000
CNc1cc(N2C[C@H]3C[C@@H]2CO3)nc(-c2cc(NC(=O)c3cc(C(F)(F)F)cnn3)ccc2C)n1 [Example 91] | – | – | – | – | – | – | 500 to 1000 | – | 1000 to 10000 | – | 1000 to 10000 | – | – | 1000 to 10000 | – | 1000 to 10000 | – | 1000 to 10000
CNc1cc(-c2cc(NC(=O)c3cc(C(F)(F)F)cnn3)ccc2C)cc(N2C[C@H]3C[C@@H]2CO3)n1 [Example 92] | – | – | – | – | – | – | < 100 | – | 100 to 500 | – | < 100 | – | – | < 100 | – | 100 to 500 | – | < 100
Cc1ccc(NC(=O)c2cc(C(F)(F)F)cnn2)cc1-c1cc(N[C@H](C)CO)nc(N2C[C@H]3C[C@@H]2CO3)c1 [Example 93] | – | – | – | – | – | – | < 100 | – | 100 to 500 | – | < 100 | – | – | < 100 | – | 100 to 500 | – | < 100
CNc1cc(-c2cc(NC(=O)c3cc(C(F)(F)F)cnn3)ccc2C)nc(N2C[C@H]3C[C@@H]2CO3)n1 [Example 94] | – | – | – | – | – | – | < 100 | – | 1000 to 10000 | – | < 100 | – | – | < 100 | – | 1000 to 10000 | – | < 100
Cc1ccc(NC(=O)N2CC[C@@H](CC(F)(F)F)C2)cc1-c1cc(N[C@H](C)CO)nc(N2CCOCC2)c1 [Exarafenib, reference compound] | 1000 to 10000 | – | 500 to 1000 | 1000 to 10000 | 1000 to 10000 | – | – | – | – | – | – | – | – | – | – | – | – | –
Cc1ccc(NC(=O)c2ccnc(C(F)(F)F)c2)cc1-c1cc(OCCO)nc(N2CCOCC2)c1 [Naporafenib, reference compound] | 1000 to 10000 | < 100 | 1000 to 10000 | 1000 to 10000 | 1000 to 10000 | < 100 | – | – | – | – | – | – | – | – | – | – | – | –
C[C@@H](NC(=O)c1ncnc(N)c1Cl)c1ncc(C(=O)Nc2cc(C(F)(F)F)c(Cl)cn2)s1 [Tovorafenib, reference compound] | 1000 to 10000 | – | 1000 to 10000 | 1000 to 10000 | 1000 to 10000 | – | – | – | – | – | – | – | – | – | – | – | – | –
